Laboratory results as given in paper PMC9775310, “Anticancer, Antimicrobial, and Antioxidant Activities of Organodiselenide-Tethered Methyl Anthranilates” (Biomolecules, 2022).
Values after ≈ are worked out from the molar mass of the structure shown. Where two headings read alike, the source gives them in different places.

Tests used:
[1] = system: MCF-7 cells; test: MTT assay, antiproliferative activity, MCF-7 breast carcinoma cells; type: cell-based; conditions: Homo sapiens, MCF7, 24 h, read-out: MCF7 IC50
Experimental: (§1) The anticancer activity of the OSe was performed using the MTT assay against liver (HepG2) and breast (MCF-7) carcinoma cells, as well as normal WI-38 cells following the reported method. Experimental details can be found in the Supplementary Materials Section S1.
(§2) Accordingly, the anticancer properties of the OSe hybrids were assessed against two cancer cell lines, i.e., HepG2 and MCF-7 cells. Furthermore, their corresponding cytotoxicity was also estimated against the immortalized lung WI-38 fibroblasts employing the MTT assay. The Adriamycin cancer drug was used as the positive control.
(§3) 1.1. The biological assays
(§4) 1.1.1. The anticancer activity
(§5) The breast adenocarcinoma (MCF-7), Hepatocellular carcinoma (HEPG-2), and normal fibroblast (WI-38) cells were obtained from ATCC via Holding company for biological products and vaccines (VACSERA), Cairo, Egypt. The reagents […] medium, MTT, DMSO, and fetal bovine serum was obtained from Sigma Aldrich. Dulbecco’s modified Eagle’s medium was used as the culture medium for the cells, and the cytotoxicity was evaluated using the reported MTT assay. Doxorubicin was used as the positive reference, and the IC50 values were obtained from the corresponding dose-response curve.
(§6) This colorimetric assay is based on converting the yellow tetrazolium bromide (MTT) to a purple formazan derivative by mitochondrial succinate dehydrogenase in viable cells. Cell lines were cultured in […] medium with 10% fetal bovine serum. Antibiotics added were 100 units/ml penicillin and 100µg/ml streptomycin at 37 C in a 5% Co2 incubator. The cell lines were seeded in a 96-well plate at a density of 1.0x10^4 cells/well. at 37 C for 48 h under 5% […]
(§7) Finally, dimethyl sulfoxide (DMSO) in the volume of 100 µl is added to each well to dissolve the purple formazan formed. […]

[2] = system: HepG2 cells; test: MTT assay, antiproliferative activity, HepG2 liver carcinoma cells; type: cell-based; conditions: Homo sapiens, HepG2, 24 h, read-out: HepG2 IC50
Experimental: as §1
as §2, with “control. The concentration inhibition, 50%, needed to kill half of the cells (IC50) was estimated from (concentration-response plots) and tabulated in Table 1.” for “control.”
as §3, §4, §5, §6
Finally, dimethyl sulfoxide (DMSO) in the volume of 100 µl is added to each well to dissolve the purple formazan formed. The colorimetric assay is measured and recorded at an absorbance of 570 nm using a plate reader (EXL 800, USA). […]

[3] = system: WI-38 cells; test: MTT assay, cytotoxicity against normal WI-38 fibroblasts; type: cell-based; conditions: Homo sapiens, WI-38, 24 h, read-out: WI38 IC50
Experimental: as §1, §2, §3, §4, §5, §6, §7

[4] = system: Escherichia coli; test: Agar well diffusion assay, E. coli; type: cell-based; conditions: ratio of inhibition zone to that of positive control
Experimental: (§8) According to the reported method, the OSe agents’ antimicrobial properties were estimated against Staphylococcus aureus (S. aureus), Escherichia coli (E. coli), and Candida albicans (C. albicans) microbial strains using the agar well diffusion assay. In addition, the MICs (in […]) were also recorded via the microdilution method following the reported procedure. Experimental details can be found in the Supplementary Materials Section S1 [16, 18].
(§9) The promising anticancer activities manifested by the OSe compounds encourage us to further evaluate their respective antimicrobial activity against a panel of gram-negative bacteria (e.g., E. coli) and the gram-positive bacteria (e.g., S. aureus) as well as a fungal strain (C. albicans) using the method of agar diffusion. The clotrimazole antifungal and the ampicillin antibacterial drugs were used as the positive controls. […]
(§10) 1.1.2. The antimicrobial activity
(§11) The antimicrobial activities of the OSe compounds were evaluated against C. albicans yeast as well as E. coli gram-negative and S. aureus gram-positive bacteria employing the agar well diffusion assay [ 4 ] .
(§12) Briefly, a concentration of 1 mM was prepared for each compound by dissolving in DMSO.
(§13) Paper discs of standard size […] were sterilized in an autoclave and soaked in 9 µL of the test compounds, and placed in the Petri dishes, which in turn contain a nutrient media (agar 9 g, peptone 5 g, and beef extract 3 g) seeded with the dedicated strain. Incubation lasted for 13 h at 36 0C. Experiments were replicated three times and the antifungal clotrimazole and antibiotic ampicillin were used as standards. The % activity index for the complex was determined and depicted in table 2. […]

[5] = system: Staphylococcus aureus; test: Agar well diffusion assay, S. aureus; type: cell-based; conditions: ratio of inhibition zone to that of positive control
Experimental: as §8, §9, §10, §11, §12, §13

[6] = system: Candida albicans; test: Agar well diffusion assay, C. albicans; type: cell-based; design: concentration or dose not given beside the values; conditions: ratio of inhibition zone to that of positive control
Experimental: as §8, §9, §10, §11, §12, §13

[7] = system: Escherichia coli; test: MIC by microdilution method, E. coli; type: cell-based; conditions: read-out: MIC E. coli
Experimental: as §8
(§14) In general, C. Albicans fungus and S. aureus gram-positive bacteria were more sensitive than gram-negative bacteria toward the OSe compounds. […]
(§15) Briefly, a concentration of 1 mM was prepared for each compound by dissolving in DMSO. […]
(§16) Furthermore, the MICs (in µM) were determined by the microdilution method according to the
1.1.3. […]

[8] = system: Staphylococcus aureus; test: MIC by microdilution method, S. aureus; type: cell-based; conditions: read-out: MIC S. aureus
Experimental: as §8, §14, §15, §16
1.1.3. […]

[9] = system: Candida albicans; test: MIC by microdilution method, C. albicans; type: cell-based; conditions: read-out: MIC C. Albicans
Experimental: as §8, §14, §15, §16
1.1.3. […]

[10] = DPPH radical scavenging bioassay; conditions: for DPPH radical scavenging activity: 200 µL, 1 mM in MeOH, DPPH 400 µL, 30 min, 517 nm
Text: (§17) The DPPH and ABTS in vitro bioassays were used to assess the OSe antioxidant activities following the reported method. Experimental details can be found in the Supplementary Materials Section S1.
(§18) The redox modulation activities of the OSe compounds were extensively explored over the last decade owing to their chemopreventive and antioxidant potency. The latter is usually investigated by the ABTS and DPPH in vitro tests employing vitamin C as the positive control. The OSe compound’s magnitude estimated the antioxidant potential to decolorize the distinctive colors of the DPPH^. and ABTS^. radicals at 517 nm and 734 nm, respectively (Figure 2).
(§19) Figure 2 The OSe compounds redox activities assessment using the ABTS and DPPH experiments. All tests are mean ± SD. ABTS experiment: absorbance was followed at 734 nm for OSe compounds (50 µL, 1 mM in MeOH) and ABTS solution (60 µL). DPPH experiment: Absorbance was monitored after 30 min at 517 nm for OSe compounds (200 µL, 1 mM in MeOH) and DPPH (400 µL). […]
1.1.3. The antioxidant activity
1.1.3.1. The DPPH bioassay
The hydrogen atom or electron donation ability of the corresponding compounds was measured by estimating the bleaching of the purple color of a methanolic solution of DPPH [5]. This spectrophotometric assay uses stable DPPH. reagent. The sample was prepared by adding […] of the OSe compounds (1 mM in methanol) to […] DPPH in methanol. After 30 min of incubation in the dark, the absorbance was read against a blank at […]. Ascorbic acid (vitamin C) and ebselen were used as standard antioxidants (positive control). A blank sample was run without DPPH. A negative control sample was run using methanol instead of the sample. The radical scavenging activity was […]
using the following equation:
Inhibition%= (Ablank-Asample)/(Ablank)*100. […]

[11] = ABTS radical scavenging bioassay; conditions: for ABTS radical scavenging activity: 50 µL, 1 mM in MeOH, ABTS solution 60 µL, 734 nm
Text: as §17, §18, §19
1.1.3.2. The ABTS bioassay
The antioxidant activity of the investigated compounds was assessed using 2,2’-azino-bis(3-ethylbenzothiazoline-6-sulphonic acid (ABTS) method. The radical cation derived from ABTS was prepared by the reaction of 60 mM ABTS solution with 0.3 M manganese dioxide solution in 0.1M phosphate buffer, pH 7. Then, the mixture was shaken, centrifuged, filtered, and the absorbance (Acontrol) of the resulting green-blue solution (ABTS radical solution) was measured at wavelength 734 nm. Then, […] of 1 mg/ml test compound in phosphate-buffered methanol was added. The absorbance (Atest) was measured. The reduction in color intensity was expressed as % inhibition. The % inhibition for each compound is calculated from the following equation
Inhibition% = (Acontrol-Asample)/(Acontrol)*100
Ascorbic acid (vitamin C) was used as a standard antioxidant (positive control). A blank sample was run without ABTS and using MeOH/phosphate buffer (1:1) instead of the sample. A negative control sample was run with MeOH/phosphate buffer (1:1) instead of a tested compound.

[12] = system: Escherichia coli; test: Agar well diffusion assay, E. coli; type: cell-based; conditions: read-out: E. coli ZID
[13] = system: Staphylococcus aureus; test: Agar well diffusion assay, S. aureus; type: cell-based; conditions: read-out: S. aureus ZID
[14] = system: Candida albicans; test: Agar well diffusion assay, C. albicans; type: cell-based; conditions: read-out: C. Albicans ZID
[15] = dose needed to decrease the absorbance by 50%
[16] = inhibition zone diameter, disks (6 mm) soaked with 20 μM

Row | Compound | IC50 [1] | IC50 [2] | IC50 [3] | E. coli IA% (activity index) [4] | S. aureus IA% (activity index) [5] | C. Albicans IA% (activity index) [6] | DPPH radical scavenging activity [10] | ABTS radical scavenging activity [11] | zone of inhibition at 20 µM [12] | zone of inhibition at 20 µM [13] | zone of inhibition at 20 µM [14] | melting point | other results
1 | COC(=O)c1cc([Se]C)ccc1N [Compound 14, methyl 2-amino-5-(methylselanyl) benzoate] | 5.64 ± 0.3 µM | 3.57 ± 0.1 µM | 62.4 ± 3.6 µM | 91.3% | 90.5% | 100% | 96% | 91% | 21 mm | 19 mm | 24 mm |  | MIC [7]: 0.5 µM (≈ 0.122 µg/mL); MIC [8]: 2 µM (≈ 0.488 µg/mL); MIC [9]: 2 µM (≈ 0.488 µg/mL); IC50 [10, 15]: 18.67 ± 0.12 µM; IC50 [11, 15]: 29.14 ± 0.2 µM
2 | CC1(C)S[C@@H]2[C@H](NC(=O)[C@H](N)c3ccccc3)C(=O)N2[C@H]1C(=O)O [Ampicillin, reference compound] |  |  |  | 100% | 100% |  |  |  |  |  |  |  | MIC ([7]; microdilution): 0.5 µM (≈ 0.175 µg/mL); MIC ([8]; microdilution): 1 µM (≈ 0.349 µg/mL); zone of inhibition at 20 µM [12, 16]: 23 mm; zone of inhibition at 20 µM [13, 16]: 21 mm
3 | COC(=O)c1cc([Se]C#N)ccc1N [Compound 4, Methyl 2-amino-5-selenocyanatobenzoate] | 23.4 ± 1.8 µM | 11.2 ± 1 µM | 52.6 ± 3.1 µM | 60.9% | 76.2% | 75% | 81% | 73% | 14 mm | 16 mm | 18 mm | 118 to 119 °C | 
4 | Clc1ccccc1C(c1ccccc1)(c1ccccc1)n1ccnc1 [Clotrimazole, reference compound] |  |  |  |  |  | 100% |  |  |  |  |  |  | MIC ([9]; microdilution): 2 µM (≈ 0.69 µg/mL); zone of inhibition at 20 µM [14, 16]: 24 mm
5 | COC(=O)c1cc([Se][Se]c2ccc(N)c(C(=O)OC)c2)ccc1N [Compound 5, dimethyl 5,5′-diselanediylbis(2-aminobenzoate)] | 9.89 ± 0.7 µM | 7.08 ± 0.6 µM | 35.9 ± 2.3 µM | 82.6% | 85.7% | 87.5% | 92% | 86% | 19 mm | 18 mm | 21 mm |  | 
6 | CCOC(=O)C(C#N)=NNc1ccc([Se][Se]c2ccc(NN=C(C#N)C(=O)OCC)c(C(=O)OC)c2)cc1C(=O)OC [Compound 6, dimethyl 5,5′-diselanediylbis(2-(2-(1-cyano-2-ethoxy-2-oxoethylidene) hydrazinyl) benzoate)] | 15.9 ± 1.2 µM | 16.2 ± 1.2 µM | 42.5 ± 2.6 µM | 69.6% | 76.2% | 70.8% | 85% | 69% | 16 mm | 16 mm | 17 mm | 105 to 106 °C | 
